Assay results published in patent publication US20230097866A1, “BACTERIAL TOPOISOMERASE INHIBITORS DERIVED FROM ISOMANNIDE” (Ohio State Innovation Foundation, priority 2020, published 2023).
In brackets after ≈: the same amount, converted by molar mass.

Columns and labels:
[1] = target: T1, Nav 1.5 Human Sodium Ion Channel (Homo sapiens, UniProt Q14524); assay: Nav 1.5 QPatch CiPA assay; assay type: cell-based; conditions: mean, duplicate
T1 construct: expressed in transfected cells
From the text: (§1) Early drug discovery programs commonly assess hERG inhibition as the only indicator of potential cardiovascular safety concerns. Researchers have recently recommended a more rigorous evaluation of multiple cardiac ion channels to provide a more comprehensive cardiovascular risk assessment (Fermini, B., et al., A New Perspective in the Field of Cardiac Safety Testing through the Comprehensive In Vitro Proarrhythmia Assay Paradigm. J. Biomolec. Screening 2016, 21, 1-11). Given the promising initial results for 6, further evaluation was undertaken (in duplicate) in a Comprehensive in vitro Proarrhythmia Assay (CiPA) eight assay panel run on the QPatch HT (Sophion, Denmark) automated patch clamp system at three concentrations (3, 30, and 100 μM). All data were filtered for seal quality, seal drop, and current amplitude. A stock solution of the test compound at 30 mM concentration was prepared in DMSO.
(§2) The parameters measured were the maximum inward current evoked on stepping to −15 mV from the test pulse. The peak current amplitude was calculated before and after compound addition and the amount of block was assessed by dividing the Test compound current amplitude by the Control current amplitude. Control is the mean hNav1.5 current amplitude collected 15 seconds at the end of the control; Test Compound is the mean hNav1.5 current amplitude collected in the presence of test compound at each concentration. The positive control compound was tetracaine.

[2] = target: 5-HT2B (Homo sapiens, UniProt P41595); assay: Off-target safety panel, 5-HT2B; assay type: binding; conditions: duplicate, read-out: % Inhibition at 100 μM conc., 5-HT2B
Procedure: (§3) Potential off-target pharmacology for compound 6 was also evaluated by screening in duplicate against a panel (Bowes, J., et al., Reducing Safety-Related Drug Attrition: The Use of in vitro Pharmacological Profiling. Nat. Rev. Drug Disc. 2012, 11, 909-922) of 44 receptors, enzymes, etc. Of the 44 potential targets, only five were inhibited by >50% at a concentration of 100 μM (Table 7).

[3] = test system: Caco-2 cells; assay type: in vitro ADME; conditions: human, Caco-2, 10 μM, pH 7.4
Procedure: Caco-2 cells were plated on Transwell inserts and permeability assays were performed at day 21-25 post-plating. A single concentration of test compound (10 μM final) was prepared in HSS-HEPES buffer (pH 7.4) with a final DMSO concentration of 0.1%. To determine apical to basolateral (A to B) transport, test compounds were applied to the apical compartment in the presence and absence of the P-gp inhibitor verapamil (100 μM final). Atenolol and caffeine were assayed as control compounds. Samples were collected at various time points and analyzed using LC-MS/MS methods to determine the apparent permeability coefficient (Papp), efflux ratio, and recovery of the test compound.
Transport in the opposite direction (B to A) was also determined.

[4] = test system: S. aureus ATCC 29213; assay: microbe, parasite or virus in culture; assay type: cell-based; conditions: Staphylococcus aureus, ATCC29213, read-out: S. aureus ATCC 29213 MIC (n = 2); CLSI agar dilution
Procedure: In order to determine the spontaneous mutation frequency of investigational agents (Table 4), the MIC was first determined using the agar dilution method as recommended by the Clinical and Laboratory Standards Institute.
Triplicate independent inocula of S. aureus ATCC 29213 were evaluated.

[5] = target: Histamine H2 (Homo sapiens, UniProt P25021); assay: Off-target safety panel, Histamine H2; assay type: binding; conditions: duplicate, read-out: % Inhibition at 100 μM conc., Histamine H2
Procedure: as §3

[6] = physchem; assay type: physicochemical; conditions: aqueous buffer, kinetic from dmso stock; buffered aqueous solution (pH 7.4)
Procedure: Test compounds were prepared at 10 mM in 100% DMSO and diluted into aqueous buffer, pH 7.4, to achieve a final test compound concentration of 100 μM with a final DMSO concentration of 1%. Caffeine and tamoxifen were assayed as control compounds. The samples were shaken for 90 minutes at room temperature and then filtered through a 0.4 μm filter plate. Filtrates were collected and analyzed using LC-MS/MS.

[7] = in vitro; assay type: in vitro ADME; conditions: pH 7.4, 10 μM, equilibrium dialysis
Procedure: In this assay an equilibrium dialysis technique was used to separate unbound test compound from compound bound to proteins. The plasma was spiked with the test compound at 10 μM with a final DMSO concentration of 1%. The dialysate compartment was loaded with phosphate buffered saline (PBS, pH 7.4) and the sample side was loaded with equal volume of the spiked plasma, After incubation at 37° C. for 4 hours, samples were removed from each plasma and buffer chamber; plasma protein was removed by treatment with acetonitrile. Recovered samples were analyzed using LC-MS.

[8] = test system: Enterococcus faecalis ATCC 29212; assay: MIC panel (Laboratory Specialists, Inc.), E. faecalis; assay type: cell-based; conditions: ATCC29212, Cmpd. 6, CLSI broth microdilution
[9] = test system: Pseudomonas aeruginosa LSI-2946; assay: MIC panel (Laboratory Specialists, Inc.), P. aeruginosa; assay type: cell-based; conditions: LSI2946, Cmpd. 6, CLSI broth microdilution
[10] = test system: Escherichia coli ATCC 25922; assay: MIC panel (Laboratory Specialists, Inc.), E. coli; assay type: cell-based; conditions: ATCC25922, read-out: MIC Escherichia coli ATCC 25922 (n = 2), Cmpd. 6, CLSI broth microdilution
[11] = target: T2, hKCNQ1/hminK (Homo sapiens, UniProt P51787); assay: KCNQ1/hminK QPatch CiPA assay; assay type: cell-based; conditions: mean, duplicate, read-out: % Inhibition KCNQ1 (peak current)
T2 construct: expressed in transfected cells
From the text: as §1
as §2, with “outward” for “inward”, “60” for “−15”, “hKCNQ1/hminK” for “hNav1.5”, “control” for “control compound”, “chromanol 293B.” for “tetracaine.”

[12] = test system: Enterococcus faecium LSI-3340; assay: MIC panel (Laboratory Specialists, Inc.), E. faecium LSI-3340; assay type: cell-based; conditions: LSI3340, Cmpd. 6, vancomycin-resistant strain

T1 sequence (Q14524 whole entry): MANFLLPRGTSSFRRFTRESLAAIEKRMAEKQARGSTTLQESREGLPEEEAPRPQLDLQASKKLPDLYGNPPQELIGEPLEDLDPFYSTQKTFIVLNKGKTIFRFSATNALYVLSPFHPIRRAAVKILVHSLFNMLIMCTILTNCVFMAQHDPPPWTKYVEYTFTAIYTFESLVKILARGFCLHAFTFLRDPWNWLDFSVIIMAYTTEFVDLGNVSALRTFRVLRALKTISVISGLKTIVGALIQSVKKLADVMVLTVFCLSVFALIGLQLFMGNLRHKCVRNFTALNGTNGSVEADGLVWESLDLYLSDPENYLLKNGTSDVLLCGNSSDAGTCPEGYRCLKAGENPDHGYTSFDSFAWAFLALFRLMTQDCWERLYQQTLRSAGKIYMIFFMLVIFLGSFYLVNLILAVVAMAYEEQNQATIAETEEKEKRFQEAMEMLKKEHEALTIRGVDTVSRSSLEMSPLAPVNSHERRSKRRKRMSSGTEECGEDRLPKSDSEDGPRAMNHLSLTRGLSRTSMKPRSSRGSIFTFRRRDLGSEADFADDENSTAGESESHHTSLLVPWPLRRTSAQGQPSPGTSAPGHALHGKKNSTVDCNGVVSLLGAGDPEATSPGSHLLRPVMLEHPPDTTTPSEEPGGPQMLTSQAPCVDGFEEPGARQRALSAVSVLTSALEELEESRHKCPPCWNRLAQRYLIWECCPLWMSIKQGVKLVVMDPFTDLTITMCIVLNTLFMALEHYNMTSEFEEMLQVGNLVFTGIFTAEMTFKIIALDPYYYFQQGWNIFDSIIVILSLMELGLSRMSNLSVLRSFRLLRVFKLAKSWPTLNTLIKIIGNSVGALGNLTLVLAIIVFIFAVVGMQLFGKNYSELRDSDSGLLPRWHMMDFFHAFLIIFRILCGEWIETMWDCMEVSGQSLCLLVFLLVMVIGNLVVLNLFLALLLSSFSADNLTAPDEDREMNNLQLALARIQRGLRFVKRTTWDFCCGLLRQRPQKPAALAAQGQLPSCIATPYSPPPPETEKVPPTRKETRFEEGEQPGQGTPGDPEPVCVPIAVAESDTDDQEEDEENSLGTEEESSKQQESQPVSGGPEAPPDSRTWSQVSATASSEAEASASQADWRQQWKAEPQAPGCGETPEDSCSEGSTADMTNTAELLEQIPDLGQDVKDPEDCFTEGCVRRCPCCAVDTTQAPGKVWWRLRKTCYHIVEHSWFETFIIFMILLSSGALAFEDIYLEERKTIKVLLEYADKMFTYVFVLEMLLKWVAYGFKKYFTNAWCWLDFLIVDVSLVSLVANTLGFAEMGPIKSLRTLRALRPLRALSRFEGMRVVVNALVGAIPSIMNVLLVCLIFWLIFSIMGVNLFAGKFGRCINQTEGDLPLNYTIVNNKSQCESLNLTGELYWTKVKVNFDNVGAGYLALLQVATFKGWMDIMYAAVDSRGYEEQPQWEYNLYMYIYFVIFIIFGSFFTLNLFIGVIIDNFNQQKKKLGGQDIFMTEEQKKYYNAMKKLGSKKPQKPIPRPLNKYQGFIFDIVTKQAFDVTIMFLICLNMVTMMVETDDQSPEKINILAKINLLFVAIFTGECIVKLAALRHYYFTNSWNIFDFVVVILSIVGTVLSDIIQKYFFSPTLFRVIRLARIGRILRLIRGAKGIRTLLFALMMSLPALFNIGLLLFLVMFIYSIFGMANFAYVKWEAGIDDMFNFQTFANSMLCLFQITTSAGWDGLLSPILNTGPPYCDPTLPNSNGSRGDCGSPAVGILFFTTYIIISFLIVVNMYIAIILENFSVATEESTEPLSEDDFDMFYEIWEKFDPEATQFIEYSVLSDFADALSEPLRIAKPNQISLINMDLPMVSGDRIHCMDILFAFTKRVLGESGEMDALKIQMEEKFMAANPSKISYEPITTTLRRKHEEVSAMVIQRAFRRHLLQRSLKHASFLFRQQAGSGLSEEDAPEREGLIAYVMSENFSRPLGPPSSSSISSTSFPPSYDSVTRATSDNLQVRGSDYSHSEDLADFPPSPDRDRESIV
5-HT2B, sequence (P41595 whole entry, species assumed): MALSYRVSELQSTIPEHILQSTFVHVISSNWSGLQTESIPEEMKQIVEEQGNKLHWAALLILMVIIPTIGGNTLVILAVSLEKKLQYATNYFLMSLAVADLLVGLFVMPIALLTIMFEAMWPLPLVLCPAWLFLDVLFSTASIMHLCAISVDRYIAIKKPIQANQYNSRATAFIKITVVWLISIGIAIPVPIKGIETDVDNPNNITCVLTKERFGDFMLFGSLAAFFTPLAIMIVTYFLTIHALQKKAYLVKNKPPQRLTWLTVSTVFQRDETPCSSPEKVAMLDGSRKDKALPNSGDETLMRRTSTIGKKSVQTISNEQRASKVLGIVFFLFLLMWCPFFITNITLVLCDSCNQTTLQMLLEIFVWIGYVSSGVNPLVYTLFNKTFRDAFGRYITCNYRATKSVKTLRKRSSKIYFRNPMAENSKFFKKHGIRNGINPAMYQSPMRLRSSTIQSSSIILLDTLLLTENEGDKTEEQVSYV
Histamine H2, sequence (P25021 whole entry): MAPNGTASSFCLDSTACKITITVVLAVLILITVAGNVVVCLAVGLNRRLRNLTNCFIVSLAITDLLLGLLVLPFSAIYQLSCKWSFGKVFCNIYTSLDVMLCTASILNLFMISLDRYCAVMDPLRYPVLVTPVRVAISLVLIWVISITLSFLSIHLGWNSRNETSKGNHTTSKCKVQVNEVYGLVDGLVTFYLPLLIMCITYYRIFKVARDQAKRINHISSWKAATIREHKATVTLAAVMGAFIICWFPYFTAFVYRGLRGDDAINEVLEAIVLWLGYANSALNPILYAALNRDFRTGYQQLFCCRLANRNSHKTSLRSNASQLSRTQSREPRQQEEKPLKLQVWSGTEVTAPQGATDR

COc1ccc2ncc(F)c(CC[C@@]3(O)CO[C@@H]4[C@@H](NCc5cc6c(cn5)OCCO6)CO[C@@H]43)c2n1 [Compound 6, (3R, 3aS,6S,6aR)-6-(((2,3-dihydro-[1,4]dioxino[2,36-c]pyridin-7-yl)methyl)amnino)-3-(2-(3-fluoro-6-methoxy-1,5-naphthyridin-4-yl)ethyl)hexahydrofuro[3,2-b]furan-3-ol]
% Inhibition Nav1.5 (peak current) ([1]; 3 μM): 6.1%
% Inhibition Nav1.5 (peak current) ([1]; 30 μM): 16.7%
% Inhibition Nav1.5 (peak current) ([1]; 100 μM): 21.1%
inhibition at 100 µM [2]: 95%
Caco-2 permeability A→B [3]: 10.8 ×10⁻⁶ cm/s
Caco-2 permeability B→A [3]: 85.3 ×10⁻⁶ cm/s
MIC [4]: 1 µg/mL (≈ 2.01 µM)
inhibition at 100 µM [5]: 51%
solubility kinetic [6]: 76.2 µM (≈ 38 µg/mL)
fraction unbound ([7]; human plasma): 0.138
fraction unbound ([7]; mouse plasma): 0.047
MIC [8]: 2 µg/mL (≈ 4.01 µM)
MIC [9]: ≤ 0.12 µg/mL
MIC [10]: 64 µg/mL (≈ 128 µM)
inhibition at 3 µM ([11]; 3 μM): -2.9%
inhibition at 30 µM ([11]; 30 μM): 1.5%
inhibition at 100 µM ([11]; 100 μM): 22.1%
MIC [12]: 0.25 µg/mL (≈ 0.501 µM)
